{"source": "patent EP4696306A1", "about": "“ADENOSINE TRIPHOSPHATE SECRETION INHIBITOR, HEPATIC STELLATE CELL ACTIVATION INHIBITOR, HEPATIC STELLATE CELL DEACTIVATOR, HEPATIC FIBROSIS THERAPEUTIC AGENT, NON-ALCOHOLIC STEATOHEPATITIS THERAPEUTIC AGENT, PSORIASIS THERAPEUTIC AGENT, AND USE OF COMPOUND FOR PRODUCING ADENOSINE TRIPHOSPHATE …” (KURUME UNIVERSITY, priority 2023, dated 2024)", "key": {"[1]": {"tested_on": "ATP transport activity in isolated chromaffin granule membranes", "test": "ATP transport (3H-ATP uptake) in chromaffin granule membrane vesicles", "format": "biochemical, bovine", "details": "for IC50: PEP analogs; for inhibitory activity on ATP transport: concentration not given", "description": "(§1) Chromaffin granule membranes were prepared from adrenal glands collected from slaughtered cattle according to Reference A (Nathan Nelson et al., 1988, Chromaffin Granule Proton Pump, Methods in Enzymology, 157, 619-633). Chromaffin granule membranes prepared by sucrose density gradient centrifugation were suspended in 2 ml of SME buffer (20 mM MOPS-tris (pH 7.0), 0.3 M sucrose, 5 mM EDTA, 10 µg/ml leupeptin, and 10 µg/ml pepstatin) + 25% glycerol, and the resulting suspension was aliquoted and stored at -80°C. Under these conditions, the ATP transport activity, the V-ATPase activity, and the catecholamine transport activity remain fully active for at least one year.\nAn ATP transport inhibition experiment for the chromaffin granule membrane was carried out according to Reference B (Yoshinori Moriyama et al., 2022, Is the vesicular nucleotide transporter a molecular target of eicosapentaenoic acid?, Frontiers in Pharmacology, 103389). About 20 µg of chromaffin granule membranes were added to 0.5 ml of measurement buffer (20 mM MOPS-tris (pH 7.0), 0.3 M sucrose, 5 mM potassium chloride, 5 mM magnesium acetate, 5 mM creatine phosphate, 10 units of creatine kinase, and 1 mM ^3[H]-ATP [15 KBq/assay]), followed by incubation at 30°C for 1 hour. Through a Millipore MCE membrane filter with a pore size 0.45 µm, 0.2 ml of the reaction liquid was filtered by suction. Thereafter, the filter was washed with 10 ml of 20 mM MOPS-tris (pH 7.0), 0.3 M sucrose, 5 mM potassium chloride, and 5 mM magnesium acetate, and dissolved in 10 ml of Clear-sol II (manufactured by Nacalai Tesque, Inc.). The radioactivity was then measured using a liquid scintillation counter (N = 3).\nThe reaction was initiated by adding 50 mM ^3[H]-ATP to a final concentration of 1 mM. The 50 mM ^3[H]-ATP was prepared by mixing an ATP-tris solution (manufactured by Sigma-Aldrich) with [2,8-^3H] adenosine triphosphate tetrasodium salt (26.0 Ci/mmol) (manufactured by New England Nuclear). PEP was used as a test reagent, and pyruvic acid was used as a negative control. Five minutes before the addition of ATP, PEP or pyruvic acid, as a solution in 20 mM MOPS-tris (pH 7.0), 0.3 M sucrose, 5 mM potassium chloride, and 5 mM magnesium acetate, was added to the measurement liquid to a final PEP concentration of 0.02, 0.05, 0.1, 0.2, 0.4, or 1 mM, or to a final pyruvic acid concentration of 0.5 or 1 mM.\n(§2) Chromaffin granule membrane vesicles were prepared in the same manner as in Example 5, and uptake of radiolabeled ATP into the vesicles was measured. Transport activity of catecholamine (dopamine) and ATP-dependent proton transport by V-ATPase were also measured in the same manner as in Example 5."}, "[2]": {"molecular_target": "T1, human VNUT (Homo sapiens, UniProt Q9BYT1)", "T1 construct": "made in house; host or cells: HIGH FIVE insect cells (baculovirus)", "T1 sequence (Q9BYT1 1-430 isoform Q9BYT1-2)": "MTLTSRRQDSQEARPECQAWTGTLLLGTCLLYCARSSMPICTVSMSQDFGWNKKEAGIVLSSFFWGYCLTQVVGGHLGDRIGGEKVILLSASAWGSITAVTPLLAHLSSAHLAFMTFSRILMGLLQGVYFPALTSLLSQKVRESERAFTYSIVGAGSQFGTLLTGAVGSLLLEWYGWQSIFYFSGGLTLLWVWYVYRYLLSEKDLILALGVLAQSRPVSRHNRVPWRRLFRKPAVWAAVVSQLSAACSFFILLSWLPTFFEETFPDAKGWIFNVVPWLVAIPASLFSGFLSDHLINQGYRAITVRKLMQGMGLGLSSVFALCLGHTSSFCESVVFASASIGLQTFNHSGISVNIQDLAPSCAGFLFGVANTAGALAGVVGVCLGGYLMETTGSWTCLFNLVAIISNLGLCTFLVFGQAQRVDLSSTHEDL", "test": "ATP loading into reconstituted liposomes containing human VNUT", "format": "biochemical", "details": "pyruvic acid at a 50-fold higher concentration (5 mM)", "description": "Human VNUT was prepared according to Reference C (Keisuke Sawada et al., 2008, Identification of a vesicular nucleotide transporter, Proc Natl Acad Sci USA, vol. 105, no. 15, 5683-5686). Insect cells (HIGH FIVE cells) were infected at MOI = 1 with a baculovirus in which a human VNUT expression system was incorporated. HIGH FIVE cells expressing VNUT (1 × 10^8 cells) were collected with a cell scraper, and suspended at about 8 mg/ml in 20 mM Tris-HCl (pH 8.0), 0.1 M potassium acetate, 10% glycerol, 10 µg/ml pepstatin A, and 10 µg/ml leupeptin, followed by homogenization of the cells using an ultrasonic generator (manufactured by Sonics Materials). […]\nVNUT (protein, 20 µg) prepared by the above method was mixed with liposomes (lipid weight, 200 µg), and left to stand at -80°C for 30 minutes. […] A major band was detected at a position of about 68 kDa. The proteins after the electrophoresis with the ePAGEL E-T520 2-10% gradient gel (manufactured by Atto) were electrotransferred to a nitrocellulose sheet, and analyzed by Western blotting using an anti-human SLC17A9 (VNUT) rabbit polyclonal antibody (manufactured by Proteintech).\nThe ATP transport activity of the VNUT-containing reconstituted liposomes prepared by the above method was measured. […]"}, "[3]": {"tested_on": "catecholamine transport", "test": "Catecholamine (3H-dopamine) transport in chromaffin granule membranes", "format": "biochemical, bovine", "details": "1 µM reserpine", "description": "as §1\nA catecholamine transport inhibition experiment was carried out in the same manner as the ATP transport experiment except that the experiment used a measurement liquid containing 20 mM MOPS-tris (pH 7.0), 0.1 M sucrose, 0.1 M potassium chloride, 5 mM magnesium acetate, and about 5 µg of chromaffin granule membranes. To 0.5 ml of the measurement liquid, 2 mM ATP was added, and the resulting mixture was incubated at 30°C for about 5 minutes, followed by addition of^3 [H]-dopamine thereto to a final concentration of 10 µM. After further incubation at 30°C for 15 minutes, 0.2 ml of the reaction liquid was subjected to suction filtration through a Millipore MCE membrane filter with a pore size of 0.45 µm, and the radioactivity on the filter was measured (N = 3). The substrate, ^3[H]-dopamine, was prepared by mixing 3,4-[RING-2,5,6-^3H]dihydroxyphenylethylamine (dopamine) (30 Ci/mmol) (manufactured by New England Nuclear) with dopamine hydrochloride (manufactured by LKT Laboratories) such that a final concentration of 0.1 mM was achieved during the use.\nas §2"}}}
{"smiles": "O=C(O)C(O)COP(=O)(O)O", "note": "(stereo not drawn) [3-phosphoglyceric acid]", "values": [{"measurement": "IC50", "setting": "[1]", "value": 450, "unit": "µM"}]}
{"smiles": "O=C(O)[C@@H](CO)OP(=O)(O)O", "note": "[D-2-phosphoglyceric acid]", "values": [{"measurement": "IC50", "setting": "[1]", "value": 180, "unit": "µM"}]}
{"smiles": "O=C(O)[C@H](CO)OP(=O)(O)O", "note": "[L-2-phosphoglyceric acid]", "values": [{"measurement": "IC50", "setting": "[1]", "value": 180, "unit": "µM"}]}
{"smiles": "C[C@H](O)C(=O)O", "note": "[L-lactic acid]", "values": [{"measurement": "inhibitory activity on ATP transport", "setting": "[1]", "value": "no inhibitory activity"}]}
{"smiles": "NC(=O)c1ccc[n+]([C@@H]2O[C@H](COP(=O)([O-])OP(=O)(O)OC[C@H]3O[C@@H](n4cnc5c(N)ncnc54)[C@H](O)[C@@H]3O)[C@@H](O)[C@H]2O)c1", "note": "[NAD+]", "values": [{"measurement": "inhibitory activity on ATP transport", "setting": "[1]", "value": "no inhibitory activity"}]}
{"smiles": "CC(=O)SCCNC(=O)CCNC(=O)[C@H](O)C(C)(C)COP(=O)(O)OP(=O)(O)OC[C@H]1O[C@@H](n2cnc3c(N)ncnc32)[C@H](O)[C@@H]1OP(=O)(O)O", "note": "[acetyl-CoA]", "values": [{"measurement": "inhibitory activity on ATP transport", "setting": "[1]", "value": "no inhibitory activity"}]}
{"smiles": "O=C(O)CC(O)(CC(=O)O)C(=O)O", "note": "[citric acid]", "values": [{"measurement": "inhibitory activity on ATP transport", "setting": "[1]", "value": "no inhibitory activity"}]}
{"smiles": "O=C(CO)[C@@H](O)[C@H](O)[C@H](O)COP(=O)(O)O", "note": "[fructose-6-phosphate]", "values": [{"measurement": "inhibitory activity on ATP transport", "setting": "[1]", "value": "no inhibitory activity"}]}
{"smiles": "O=C[C@H](O)[C@@H](O)[C@H](O)[C@H](O)COP(=O)(O)O", "note": "[glucose-6-phosphate]", "values": [{"measurement": "inhibitory activity on ATP transport", "setting": "[1]", "value": "no inhibitory activity"}]}
{"smiles": "O=C(O)CC(O)C(=O)O", "note": "(stereo not drawn) [malic acid]", "values": [{"measurement": "inhibitory activity on ATP transport", "setting": "[1]", "value": "no inhibitory activity"}]}
{"smiles": "O=C(O)CC(=O)C(=O)O", "note": "[oxaloacetic acid]", "values": [{"measurement": "inhibitory activity on ATP transport", "setting": "[1]", "value": "no inhibitory activity"}]}
{"smiles": "CC(=O)C(=O)O", "note": "[pyruvic acid]", "values": [{"measurement": "ATP loading into liposomes", "setting": "[2]", "value": "did not inhibit ATP loading into liposomes"}, {"measurement": "inhibitory activity on ATP transport", "setting": "[1]", "value": "no inhibitory activity"}, {"measurement": "inhibition of ATP transport", "setting": "[1]; concentrations of up to 1 mM", "value": "did not inhibit ATP transport"}]}
{"smiles": "COC(=O)[C@H]1[C@H]2C[C@@H]3c4[nH]c5cc(OC)ccc5c4CCN3C[C@H]2C[C@@H](OC(=O)c2cc(OC)c(OC)c(OC)c2)[C@@H]1OC", "note": "[reserpine]", "values": [{"measurement": "ATP-dependent dopamine transport", "setting": "[3]", "value": "almost completely blocked"}]}
